For one assay, the target named is T1, WEE1 (Homo sapiens, UniProt P30291+Q96SW2).
T1 construct: C-terminal ePL-tagged (DiscoverX, Fremont, CA) full-length WEE1 expression construct; expressed in transfected cells; host or cells: LentiX-HEK293T (Invitrogen), lentiviral transduction; co-expressing GSPT1-GN (G576N, lacking the first 158 amino acids)
The assay is described as follows: WEE1-ePL degradation assay (LentiX-WEE1-ePL-GSPT1-ND cells, InCELL Hunter luminescence, 4 h). The format is cell-based. As to conditions: 293T-LentiX WEE1-ePL cells; for 293T-LentiX WEE1-ePL Degradation 4 hr (Ymin): lower limit of the fit (0 = luciferase inhibitor, Ymax = DMSO control); for DC50: read-out: 293T-LentiX WEE1-ePL Degradation 4 hr (EC50). The procedure, abridged:
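First, compounds were pre-plated as 10-point, 3-fold dilutions (top 1 uM or 10 uM) with DMSO control; next, WEE1-ePL-expressing HEK293T cells were added and held 4 h at 37 °C; finally, InCELL Hunter reagent was applied for 30 min before luminescence reading. A 4PL fit gave EC50 and Ymin.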

The next assay has as its system MKN45 cells. Put plainly: MKN45 cell proliferation assay (Cell-Titer-Glo, 120 h). To be noted: for EC50: Homo sapiens, MKN-45, 120 h, Cell-Titer-Glo, growth inhibition, read-out: MKN45 Cell Prolif. 120 hr (EC50); for MKN45 Cell Prolif. 120 hr (Ymin-Obs): minimal percent of DMSO control observed in the concentrations tested. The format is cell-based. The procedure, abridged: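 Cells seeded at 400/well onto pre-printed 10-point half-log dilutions (top 1 or 10 uM, 0.1% DMSO final), in triplicate, and grown 120 h at 37 C. Viability by Cell-Titer-Glo luminescence, blank-subtracted and normalised to DMSO; EC50 from four-parameter logistic fit, with observed minimal % of control recorded as Ymin-obs.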

Experimental findings from patent US20240067632A1, “WEE1 Degrading Compounds and Uses Thereof” (Bristol-Myers Squibb Company, priority 2022, published 2024) are described below.

What is called EC50 is the concentration at which the effect is half-maximal. `O=C1CCC(N2Cc3cc(O[C@H]4CCN(Cc5ccc6nc(C7CCOCC7)ncc6c5)C4)ccc3C2=O)C(=O)N1` (stereo partly drawn) [3-(5-{[(3S)-1-{[2-(oxan-4-yl)quinazolin-6-yl]methyl}pyrrolidin-3-yl]oxy}-1-oxo-2,3-dihydro-1H-isoindol-2-yl)piperidine-2,6-dione]: on WEE1, the “293T-LentiX WEE1-ePL Degradation 4 hr (Ymin)” value came out at 30.5 and the DC50 was 32.6 nM. In addition, in the assay with MKN45 cells, the EC50 was 21.4 nM and the “MKN45 Cell Prolif. 120 hr (Ymin-Obs)” value came to 6.11.

`O=C1CCC(N2Cc3cc(O[C@H]4CCN(Cc5ccc6nc(C7CCOCC7)ccc6c5)C4)ccc3C2=O)C(=O)N1` (stereo partly drawn) [3-(5-{[(3S)-1-{[2-(oxan-4-yl)quinolin-6-yl]methyl}pyrrolidin-3-yl]oxy}-1-oxo-2,3-dihydro-1H-isoindol-2-yl)piperidine-2,6-dione]: at WEE1, the “293T-LentiX WEE1-ePL Degradation 4 hr (Ymin)” value was found to be 32.6 and the DC50 turned out to be 2.83 nM. Besides, in the assay with MKN45 cells, the half-maximal effective concentration (EC50) is 4.9 nM and the “MKN45 Cell Prolif. 120 hr (Ymin-Obs)” value is listed as 12.83.

As for `O=C1CCC(N2Cc3cc(O[C@H]4CCN(Cc5ccc6nc(OC7CCOCC7)ccc6c5)C4)ccc3C2=O)C(=O)N1` (stereo partly drawn) [3-(5-{[(3S)-1-{[2-(oxan-4-yloxy)quinolin-6-yl]methyl}pyrrolidin-3-yl]oxy}-1-oxo-2,3-dihydro-1H-isoindol-2-yl)piperidine-2,6-dione], at WEE1, the “293T-LentiX WEE1-ePL Degradation 4 hr (Ymin)” value is reported as 33 and the DC50 is 4.52 nM. Further, in the assay on MKN45 cells, the EC50 amounted to 9.83 nM and the “MKN45 Cell Prolif. 120 hr (Ymin-Obs)” value is given as 13.54.

For the compound `O=C1CCC(N2Cc3cc(O[C@H]4CCN(Cc5ccc6nc(C7COC7)ncc6c5)C4)ccc3C2=O)C(=O)N1` (stereo partly drawn) [3-(5-{[(3S)-1-{[2-(oxetan-3-yl)quinazolin-6-yl]methyl}pyrrolidin-3-yl]oxy}-1-oxo-2,3-dihydro-1H-isoindol-2-yl)piperidine-2,6-dione], at WEE1, the “293T-LentiX WEE1-ePL Degradation 4 hr (Ymin)” value was 30 and the DC50 turned out to be 16.8 nM. Moreover, in the assay with MKN45 cells, the EC50 came out at 16.7 nM and the “MKN45 Cell Prolif. 120 hr (Ymin-Obs)” value was 7.8.

For the compound `O=C1CCC(N2Cc3cc(O[C@H]4CCN(Cc5ccc6nc(C7COC7)ccc6c5)C4)ccc3C2=O)C(=O)N1` (stereo partly drawn) [3-(5-{[(3S)-1-{[2-(oxetan-3-yl)quinolin-6-yl]methyl}pyrrolidin-3-yl]oxy}-1-oxo-2,3-dihydro-1H-isoindol-2-yl)piperidine-2,6-dione], at WEE1, the “293T-LentiX WEE1-ePL Degradation 4 hr (Ymin)” value worked out at 33 and the DC50 worked out at 3.79 nM. In the assay on MKN45 cells, the EC50 was determined as 11.2 nM and the “MKN45 Cell Prolif. 120 hr (Ymin-Obs)” value stood at 10.08.

As to `O=C1CCC(N2Cc3cc(O[C@H]4CCN(Cc5ccc6ncc(C(F)F)cc6c5)C4)ccc3C2=O)C(=O)N1` (stereo partly drawn) [3-(5-{[(3S)-1-{[3-(difluoromethyl)quinolin-6-yl]methyl}pyrrolidin-3-yl]oxy}-1-oxo-2,3-dihydro-1H-isoindol-2-yl)piperidine-2,6-dione], on WEE1, the “293T-LentiX WEE1-ePL Degradation 4 hr (Ymin)” value is reported as 33 and the DC50 was determined as 3.38 nM. Moreover, in the assay on MKN45 cells, the EC50 came out at 14.4 nM and the “MKN45 Cell Prolif. 120 hr (Ymin-Obs)” value stood at 11.04.

As to `COCc1cnc2ccc(CN3CC[C@H](Oc4ccc5c(c4)CN(C4CCC(=O)NC4=O)C5=O)C3)cc2c1` (stereo partly drawn) [3-(5-{[(3S)-1-{[3-(methoxymethyl)quinolin-6-yl]methyl}pyrrolidin-3-yl]oxy}-1-oxo-2,3-dihydro-1H-isoindol-2-yl)piperidine-2,6-dione], on WEE1, the “293T-LentiX WEE1-ePL Degradation 4 hr (Ymin)” value is recorded as 33 and the DC50 was 4.28 nM. In addition, in the assay on MKN45 cells, the EC50 was 11.1 nM and the “MKN45 Cell Prolif. 120 hr (Ymin-Obs)” value is listed as 7.64.

For the compound `CNc1cnc2ccc(CN3CC[C@H](Oc4ccc5c(c4)CN(C4CCC(=O)NC4=O)C5=O)C3)cc2c1` (stereo partly drawn) [3-(5-{[(3S)-1-{[3-(methylamino)quinolin-6-yl]methyl}pyrrolidin-3-yl]oxy}-1-oxo-2,3-dihydro-1H-isoindol-2-yl)piperidine-2,6-dione], on WEE1, the “293T-LentiX WEE1-ePL Degradation 4 hr (Ymin)” value amounted to 34 and the DC50 is 18.1 nM. Further, in the assay on MKN45 cells, the concentration giving a half-maximal response (EC50) came out at 204 nM and the “MKN45 Cell Prolif. 120 hr (Ymin-Obs)” value is 16.86.

For the compound `O=C1CCC(N2Cc3cc(O[C@H]4CCN(Cc5ccc6ncc(N7CCOCC7)cc6c5)C4)ccc3C2=O)C(=O)N1` (stereo partly drawn) [3-(5-{[(3S)-1-{[3-(morpholin-4-yl)quinolin-6-yl]methyl}pyrrolidin-3-yl]oxy}-1-oxo-2,3-dihydro-1H-isoindol-2-yl)piperidine-2,6-dione], at WEE1, the “293T-LentiX WEE1-ePL Degradation 4 hr (Ymin)” value was found to be 27 and the DC50 is 3.19 nM. For the same compound, in the assay on MKN45 cells, the EC50 amounted to 2.96 nM and the “MKN45 Cell Prolif. 120 hr (Ymin-Obs)” value is given as 7.83.

Turning to `O=C1CCC(N2Cc3cc(O[C@H]4CCN(Cc5ccc6ncc(C7COC7)cc6c5)C4)ccc3C2=O)C(=O)N1` (stereo partly drawn) [3-(5-{[(3S)-1-{[3-(oxetan-3-yl)quinolin-6-yl]methyl}pyrrolidin-3-yl]oxy}-1-oxo-2,3-dihydro-1H-isoindol-2-yl)piperidine-2,6-dione], at WEE1, the “293T-LentiX WEE1-ePL Degradation 4 hr (Ymin)” value is 30 and the DC50 is 4.67 nM. In the assay with MKN45 cells, the EC50 turned out to be 5.04 nM and the “MKN45 Cell Prolif. 120 hr (Ymin-Obs)” value is on record as 8.08.

For the compound `[2H]c1nc2ccc(CN3CCC(Oc4ccc5c(c4)CN(C4CCC(=O)NC4=O)C5=O)C3)cc2cc1F` [3-(5-{[(3S)-1-{[3-fluoro(2-^2H)quinolin-6-yl]methyl}pyrrolidin-3-yl]oxy}-1-oxo-2,3-dihydro-1H-isoindol-2-yl)piperidine-2,6-dione], at WEE1, the “293T-LentiX WEE1-ePL Degradation 4 hr (Ymin)” value is 35 and the DC50 amounted to 3.57 nM. Further, in the assay with MKN45 cells, the EC50 turned out to be 94.9 nM and the “MKN45 Cell Prolif. 120 hr (Ymin-Obs)” value was determined as 21.68.

As to `Cc1nc(N2CCOCC2)nc2ccc(CN3CC[C@H](Oc4ccc5c(c4)CN(C4CCC(=O)NC4=O)C5=O)C3)cc12` (stereo partly drawn) [3-(5-{[(3S)-1-{[4-methyl-2-(morpholin-4-yl)quinazolin-6-yl]methyl}pyrrolidin-3-yl]oxy}-1-oxo-2,3-dihydro-1H-isoindol-2-yl)piperidine-2,6-dione], at WEE1, the “293T-LentiX WEE1-ePL Degradation 4 hr (Ymin)” value turned out to be 36 and the DC50 was 5.37 nM. In the assay on MKN45 cells, the EC50 is 9.28 nM and the “MKN45 Cell Prolif. 120 hr (Ymin-Obs)” value came out at 7.12.

Turning to `O=C1CCC(N2Cc3cc(O[C@H]4CCN(Cc5ccc6nc(C7CCOCC7)ccc6c5F)C4)ccc3C2=O)C(=O)N1` (stereo partly drawn) [3-(5-{[(3S)-1-{[5-fluoro-2-(oxan-4-yl)quinolin-6-yl]methyl}pyrrolidin-3-yl]oxy}-1-oxo-2,3-dihydro-1H-isoindol-2-yl)piperidine-2,6-dione], at WEE1, the “293T-LentiX WEE1-ePL Degradation 4 hr (Ymin)” value amounted to 32 and the DC50 is 1.33 nM. In the assay with MKN45 cells, the EC50 worked out at 1.29 nM and the “MKN45 Cell Prolif. 120 hr (Ymin-Obs)” value is reported as 10.02.

On to `COCc1ccc2nc(CN3CC[C@H](Oc4ccc5c(c4)CN(C4CCC(=O)NC4=O)C5=O)C3)ccc2c1` (stereo partly drawn) [3-(5-{[(3S)-1-{[6-(methoxymethyl)quinolin-2-yl]methyl}pyrrolidin-3-yl]oxy}-1-oxo-2,3-dihydro-1H-isoindol-2-yl)piperidine-2,6-dione], for which, on WEE1, the “293T-LentiX WEE1-ePL Degradation 4 hr (Ymin)” value was 46 and the DC50 worked out at 11.7 nM. Further, in the assay with MKN45 cells, the EC50 stood at 89.6 nM and the “MKN45 Cell Prolif. 120 hr (Ymin-Obs)” value was determined as 26.02.

On to `O=C1CCC(N2Cc3cc(O[C@H]4CCN(Cc5cc6cc(C7CCOCC7)ccc6cn5)C4)ccc3C2=O)C(=O)N1` (stereo partly drawn) [3-(5-{[(3S)-1-{[6-(oxan-4-yl)isoquinolin-3-yl]methyl}pyrrolidin-3-yl]oxy}-1-oxo-2,3-dihydro-1H-isoindol-2-yl)piperidine-2,6-dione], for which, on WEE1, the “293T-LentiX WEE1-ePL Degradation 4 hr (Ymin)” value is listed as 33.5 and the DC50 amounted to 5.55 nM. Also, in the assay on MKN45 cells, the EC50 stood at 12.3 nM and the “MKN45 Cell Prolif. 120 hr (Ymin-Obs)” value turned out to be 13.12.

Turning to `CC(C)(O)c1ccc2cc(CN3CC[C@H](Oc4ccc5c(c4)CN(C4CCC(=O)NC4=O)C5=O)C3)ncc2c1` (stereo partly drawn) [3-(5-{[(3S)-1-{[7-(2-hydroxypropan-2-yl)isoquinolin-3-yl]methyl}pyrrolidin-3-yl]oxy}-1-oxo-2,3-dihydro-1H-isoindol-2-yl)piperidine-2,6-dione], on WEE1, the “293T-LentiX WEE1-ePL Degradation 4 hr (Ymin)” value is recorded as 31 and the DC50 is 5.41 nM. Besides, in the assay on MKN45 cells, the EC50 was 16.2 nM and the “MKN45 Cell Prolif. 120 hr (Ymin-Obs)” value was 7.18.

Regarding `COC(C)(C)c1ccc2cc(CN3CC[C@H](Oc4ccc5c(c4)CN(C4CCC(=O)NC4=O)C5=O)C3)ncc2c1` (stereo partly drawn) [3-(5-{[(3S)-1-{[7-(2-methoxypropan-2-yl)isoquinolin-3-yl]methyl}pyrrolidin-3-yl]oxy}-1-oxo-2,3-dihydro-1H-isoindol-2-yl)piperidine-2,6-dione], on WEE1, the “293T-LentiX WEE1-ePL Degradation 4 hr (Ymin)” value is 32 and the DC50 worked out at 1.21 nM. In addition, in the assay with MKN45 cells, the EC50 stood at 6.04 nM and the “MKN45 Cell Prolif. 120 hr (Ymin-Obs)” value is reported as 11.51.

For `COCc1ccc2cc(CN3CC[C@H](Oc4ccc5c(c4)CN(C4CCC(=O)NC4=O)C5=O)C3)ncc2c1` (stereo partly drawn) [3-(5-{[(3S)-1-{[7-(methoxymethyl)isoquinolin-3-yl]methyl}pyrrolidin-3-yl]oxy}-1-oxo-2,3-dihydro-1H-isoindol-2-yl)piperidine-2,6-dione], at WEE1, the “293T-LentiX WEE1-ePL Degradation 4 hr (Ymin)” value turned out to be 30 and the DC50 was 1.42 nM. Besides, in the assay on MKN45 cells, the EC50 was determined as 2.85 nM and the “MKN45 Cell Prolif. 120 hr (Ymin-Obs)” value is on record as 8.95.
